How the values were obtained:
Swiss male mice = assay: rota-rod test (muscle relaxant activity); assay type: in vivo; details: for Resistance time (sec. M ± S.E.): thirty minutes before the test
Experimental: Muscle relaxant activity was evaluated with the rota-rod test. Swiss male mice weighing 20-25 g were treated intraperitoneally with the β-D isomer of compound (Ib) at doses of 1-3-10 mg/kg, thirty minutes before the test. Relaxant activity on striated muscles was evaluated by testing the resistance of the mice to the stimuli of a rotating plane revolving at increasing rate, from 2 to 50 r.p.m.

[1] = acute toxicity (DL50 i.p.); details: for DL50/DE50: toxic/active dose ratio
[2] = rota-rod, mice, dose 1 mg/Kg i.p.
[3] = rota-rod, mice, dose 3 mg/Kg i.p.
[4] = rota-rod, mice, dose 10 mg/Kg i.p.
[5] = rota-rod, mice, i.p., Table 1, with limits in brackets

COc1c(O[C@@H]2OC[C@@H](O)[C@H](O)[C@H]2O)cc2c(c1OC)-c1ccc(SC)c(=O)cc1C(NC(C)=O)CC2 (single isomer, unassigned) [Compound (Ib) isomer β-D, 3-O-β-D-xylopyranosyl-3-O-demethylthiocolchicine]
DE50 (Swiss male mice; Table 2): 2.23 mg/kg i.p.
muscle relaxant activity compared with thiocolchicoside (Swiss male mice; rota-rod, mice, 1-3-10 mg/kg i.p.): more active than thiocolchicoside
Resistance time (sec. M ± S.E.) (Swiss male mice; [2]): 270 ± 19 s
Resistance time (sec. M ± S.E.) (Swiss male mice; [3]): 175 ± 14 s
Resistance time (sec. M ± S.E.) (Swiss male mice; [4]): 80 ± 10 s
DE50 (Swiss male mice; [5]): 2.23 (1.84-2.82) mg/Kg
DL50 ([1]; Table 2): 80 mg/kg i.p.
DL50 ([1]; i.p.): 80 (63-94) mg/kg
DL50/DE50 ([1]; i.p.): 35.87

COc1c(O[C@@H]2O[C@H](CO)[C@@H](O)[C@H](O)[C@H]2O)cc2c(c1OC)-c1ccc(SC)c(=O)cc1[C@@H](NC(C)=O)CC2 [Thiocolchicoside isomer β-D, 3-demethyl-thiocolchicine glucoside, reference compound]
DE50 (Swiss male mice; Table 2): 4.47 mg/kg i.p.
Resistance time (sec. M ± S.E.) (Swiss male mice; [2]): 345 ± 20 s
Resistance time (sec. M ± S.E.) (Swiss male mice; [3]): 265 ± 17 s
Resistance time (sec. M ± S.E.) (Swiss male mice; [4]): 110 ± 12 s
DE50 (Swiss male mice; [5]): 4.47 (3.16-7.01) mg/Kg
DL50 ([1]; Table 2): 20 mg/kg i.p.
DL50 ([1]; i.p.): 20 mg/kg
DL50/DE50 ([1]; i.p.): 4.47
